Our source for the DC50 and IC50 values is patent US20260028354A1, “TETRAHYDRONAPHTHALENE DERIVATIVES AS ESTROGEN RECEPTOR DEGRADERS” (REGENT OF THE UNIVERSITY OF MICHIGAN, priority 2022, published 2026).

The target of assay [1] is ER (Homo sapiens (Human), UniProt P03372). Nature of the assay: In-cell western blot analysis of ER for "B" compounds. The format is cell-based. The settings on record: 16 hours, read-out: ICW DC50. The procedure, abridged:
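ER levels given as a percentage of untreated/DMSO-treated wells (100%). Detection used primary antibodies for 2 h at room temperature followed by 680 and 800 nm fluorescent secondaries at 1:1000 for 1 h, read by LI-COR imaging.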

Assay [2] can be described thus: Cell growth assay (WST-8) for "B" compounds. The format is cell-based. The settings on record: T47D, read-out: Cell growth Inhibition in T47D cell line IC50. The procedure, abridged: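 Four-day compound exposure of cells plated at 1500/well the day before. Read-out is WST-8 (10%, 2.5 h, 37 °C) absorbance at 450 nm, normalized to vehicle control over three independent repeats.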

Where two headings read alike, the source gives them in different places.

Sequence of ER (P03372 whole entry): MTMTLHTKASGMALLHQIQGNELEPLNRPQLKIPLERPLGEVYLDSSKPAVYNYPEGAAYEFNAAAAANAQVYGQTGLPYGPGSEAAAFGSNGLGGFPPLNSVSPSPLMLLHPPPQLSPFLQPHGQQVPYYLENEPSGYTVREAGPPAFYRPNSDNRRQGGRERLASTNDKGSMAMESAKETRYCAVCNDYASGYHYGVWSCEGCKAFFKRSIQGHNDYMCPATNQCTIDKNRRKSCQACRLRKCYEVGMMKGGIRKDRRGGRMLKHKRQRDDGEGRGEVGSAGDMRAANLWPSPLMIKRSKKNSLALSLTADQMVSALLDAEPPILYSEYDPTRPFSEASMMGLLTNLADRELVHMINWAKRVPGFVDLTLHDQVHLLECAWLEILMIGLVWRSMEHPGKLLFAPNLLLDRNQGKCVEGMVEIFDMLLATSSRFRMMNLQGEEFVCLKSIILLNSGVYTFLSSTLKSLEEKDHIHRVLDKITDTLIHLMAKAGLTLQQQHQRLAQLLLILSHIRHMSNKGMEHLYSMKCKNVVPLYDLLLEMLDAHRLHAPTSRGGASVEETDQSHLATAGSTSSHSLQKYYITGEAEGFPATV

Turning to `CN(C(=O)c1ccc2c(n1)OC[C@H]1CN(CC3COC4(CCN(c5ccc([C@@H]6c7ccc(O)cc7CC[C@@H]6c6ccccc6)cc5)CC4)C3)CCN21)C1CCC(=O)NC1=O` (stereo partly drawn) [Compound B237, (4aR)-N-(2,6-dioxopiperidin-3-yl)-3-((8-(4-((1R,2S)-6-hydroxy-2-phenyl-1,2,3,4-tetrahydronaphthalen-1-yl)phenyl)-1-oxa-8-azaspiro[4.5]decan-3-yl)methyl)-N-methyl-1,2,3,4,4a,5-hexahydropyrazino[1,2-d]pyrido[2,3-b][1,4]oxazine-8-carboxamide], the DC50 in assay [1] was > 100 nM. Also, the concentration for half-maximal inhibition (IC50) in assay [2] (T47D cell line) is 1 to 10 nM.
With `O=C1CCC(N2Cc3cc4c(cc3C2=O)OC[C@@H]2CN(CC3COC5(CCN(c6ccc([C@@H]7c8ccc(O)cc8CC[C@@H]7c7ccccc7)cc6)CC5)O3)CCN42)C(=O)N1` (stereo partly drawn) [Compound B239, 3-((4aS)-3-((8-(4-((1R,2S)-6-hydroxy-2-phenyl-1,2,3,4-tetrahydronaphthalen-1-yl)phenyl)-1,4-dioxa-8-azaspiro[4.5]decan-2-yl)methyl)-8-oxo-1,2,3,4,4a,5,8,10-octahydro-9H-pyrazino[1′,2′:4,5][1,4]oxazino[2,3-f]isoindol-9-yl)piperidine-2,6-dione], the DC50 in assay [1] was 10 to 100 nM. For the same compound, in assay [2] (T47D cell line), the half-inhibitory concentration (IC50) was in the range of 1 to 10 nM.
Take `O=C1CCC(N2Cc3cc4c(cc3C2=O)OC[C@@H]2CN(CC3COC5(CCN(c6ccc([C@@H]7c8ccc(O)cc8CC[C@@H]7c7ccccc7)cc6)CC5)OC3)CCN42)C(=O)N1` (stereo partly drawn) [Compound B242, 3-((S)-3-((9-(4-((1R,2S)-6-hydroxy-2-phenyl-1,2,3,4-tetrahydronaphthalen-1-yl)phenyl)-1,5-dioxa-9-azaspiro[5.5]undecan-3-yl)methyl)-8-oxo-1,2,3,4,4a,5,8,10-octahydro-9H-pyrazino[1′,2′:4,5][1,4]oxazino[2,3-f]isoindol-9-yl)piperidine-2,6-dione]: in assay [1], the DC50 is < 10 nM. For the same compound, in assay [2] (T47D cell line), the 50% inhibitory concentration (IC50) is < 1 nM.
In the same order, the values of `O=C1CCC(N2Cc3c(ccc4c3N3CCN(CC5CCN(c6ccc([C@@H]7c8ccc(O)cc8CC[C@@H]7c7ccccc7)cc6)CC5)C[C@H]3CO4)C2=O)C(=O)N1` (stereo partly drawn) [Compound B243, 3-((S)-9-((1-(4-((1R,2S)-6-hydroxy-2-phenyl-1,2,3,4-tetrahydronaphthalen-1-yl)phenyl)piperidin-4-yl)methyl)-3-oxo-1,3,7,7a,8,9,10,11-octahydro-2H-pyrazino[1′,2′:4,5][1,4]oxazino[3,2-e]isoindol-2-yl)piperidine-2,6-dione] are 10 to 100 nM and 1 to 10 nM.
Take `O=C1CCC(N2Cc3c(ccc4c3OC[C@H]3CN(C(=O)CN5CC(Oc6ccc([C@@H]7c8ccc(O)cc8CC[C@@H]7c7ccccc7)cc6)C5)CCN43)C2=O)C(=O)N1` (stereo partly drawn) [Compound B245, 3-((R)-7-(2-(3-(4-((1R,2S)-6-hydroxy-2-phenyl-1,2,3,4-tetrahydronaphthalen-1-yl)phenoxy)azetidin-1-yl)acetyl)-1-oxo-1,3,5,5a,6,7,8,9-octahydro-2H-pyrazino[1′,2′:4,5][1,4]oxazino[2,3-e]isoindol-2-yl)piperidine-2,6-dione]: the DC50 in assay [1] is 10 to 100 nM. Further, the IC50 in assay [2] (T47D cell line) is < 1 nM.
Take `O=C1CCC(N2Cc3c(ccc4c3OC[C@H]3CN(CC(=O)N5CC(Oc6ccc([C@@H]7c8ccc(O)cc8CC[C@@H]7c7ccccc7)cc6)C5)CCN43)C2=O)C(=O)N1` (stereo partly drawn) [Compound B246]: the DC50 in assay [1] was < 10 nM. Further, in assay [2] (T47D cell line), the IC50 was < 1 nM.
In the same order, the values of `O=C1CCC(N2Cc3c(ccc4c3OC[C@@H]3CN(C(=O)CN5CC(Oc6ccc([C@@H]7c8ccc(O)cc8CC[C@@H]7c7ccccc7)cc6)C5)CCN43)C2=O)C(=O)N1` (stereo partly drawn) [Compound B248, 3-((S)-7-(2-(3-(4-((1R,2S)-6-hydroxy-2-phenyl-1,2,3,4-tetrahydronaphthalen-1-yl)phenoxy)azetidin-1-yl)acetyl)-1-oxo-1,3,5,5a,6,7,8,9-octahydro-2H-pyrazino[1′,2′:4,5][1,4]oxazino[2,3-e]isoindol-2-yl)piperidine-2,6-dione] are 10 to 100 nM and < 1 nM.
In the same order, the values of `O=C1CCC(N2Cc3c(ccc4c3OC[C@H]3CN(C(=O)CN5CC(Nc6ccc([C@@H]7c8ccc(O)cc8CC[C@@H]7c7ccccc7)cc6)C5)CCN43)C2=O)C(=O)N1` (stereo partly drawn) [Compound B250, 3-((R)-7-(2-(3-((4-((1R,2S)-6-hydroxy-2-phenyl-1,2,3,4-tetrahydronaphthalen-1-yl)phenyl)amino)azetidin-1-yl)acetyl)-1-oxo-1,3,5,5a,6,7,8,9-octahydro-2H-pyrazino[1′,2′:4,5][1,4]oxazino[2,3-e]isoindol-2-yl)piperidine-2,6-dione] are 10 to 100 nM and < 1 nM.
As to `CN(C(=O)c1ccc2c(c1)OC[C@H]1CN(CC3CCN(c4ccc([C@@H]5c6ccc(O)cc6CC[C@@H]5c5ccccc5)cc4)CC3)CCN21)C1CCC(=O)NC1=O` (stereo partly drawn) [Compound B255, (4aR)-N-(2,6-dioxopiperidin-3-yl)-3-((1-(4-((1R,2S)-6-hydroxy-2-phenyl-1,2,3,4-tetrahydronaphthalen-1-yl)phenyl)piperidin-4-yl)methyl)-N-methyl-1,2,3,4,4a,5-hexahydrobenzo[b]pyrazino[1,2-d][1,4]oxazine-8-carboxamide], the DC50 in assay [1] was 10 to 100 nM. Also, the half-inhibitory concentration (IC50) in assay [2] (T47D cell line) fell in the range of 1 to 10 nM.
For `O=C1CC[C@H](NC(=O)c2ccc3c(c2)OC[C@H]2CN(CC4CCN(c5ccc([C@@H]6c7ccc(O)cc7CC[C@@H]6c6ccccc6)cc5)CC4)CCN32)C(=O)N1` [Compound B256, (R)-N-((S)-2,6-dioxopiperidin-3-yl)-3-((1-(4-((1R,2S)-6-hydroxy-2-phenyl-1,2,3,4-tetrahydronaphthalen-1-yl)phenyl)piperidin-4-yl)methyl)-1,2,3,4,4a,5-hexahydrobenzo[b]pyrazino[1,2-d][1,4]oxazine-8-carboxamide] the same measures were 10 to 100 nM and 1 to 10 nM.
Regarding `O=C1CC[C@H](NC(=O)c2ccc3c(c2)OC[C@@H]2CN(CC4CCN(c5ccc([C@@H]6c7ccc(O)cc7CC[C@@H]6c6ccccc6)cc5)CC4)CCN32)C(=O)N1` [Compound B257, (S)-N-((S)-2,6-dioxopiperidin-3-yl)-3-((1-(4-((1R,2S)-6-hydroxy-2-phenyl-1,2,3,4-tetrahydronaphthalen-1-yl)phenyl)piperidin-4-yl)methyl)-1,2,3,4,4a,5-hexahydrobenzo[b]pyrazino[1,2-d][1,4]oxazine-8-carboxamide], the DC50 in assay [1] is > 100 nM. For the same compound, in assay [2] (T47D cell line), the concentration for half-maximal inhibition (IC50) is 1 to 10 nM.
Consider `O=C1CCC(N2Cc3c(ccc4c3OCC43CCN(CC4CCN(c5ccc([C@@H]6c7ccc(O)cc7CC[C@@H]6c6ccccc6)cc5)CC4)CC3)C2=O)C(=O)N1` (stereo partly drawn) [Compound B258, 3-(1′-((1-(4-((1R,2S)-6-hydroxy-2-phenyl-1,2,3,4-tetrahydronaphthalen-1-yl)phenyl)piperidin-4-yl)methyl)-6-oxo-6,8-dihydro-2H,7H-spiro[furo[2,3-e]isoindole-3,4′-piperidin]-7-yl)piperidine-2,6-dione], for which, in assay [1], the DC50 lay within 10 to 100 nM. The IC50 in assay [2] was < 1 nM.
